# Reference: publication PMC6704710, “Preclinical evaluation of 3D185, a novel potent inhibitor of FGFR1/2/3 and CSF-1R, in FGFR-dependent and macrophage-dominant cancer models” (Journal of Experimental & Clinical Cancer Research : CR, 2019)
# What was measured:
# Assay in all cases: Eurofins kinase panel
# Type in all cases: biochemical
# Conditions in all cases: read-out: Inhibition rate (%)
# Plk4(h) = target: T1, Plk4(h) (Homo sapiens, UniProt O00444)
# T1 construct: purchased Eurofins (KinaseProfiler)
# T1 sequence (O00444 1-970): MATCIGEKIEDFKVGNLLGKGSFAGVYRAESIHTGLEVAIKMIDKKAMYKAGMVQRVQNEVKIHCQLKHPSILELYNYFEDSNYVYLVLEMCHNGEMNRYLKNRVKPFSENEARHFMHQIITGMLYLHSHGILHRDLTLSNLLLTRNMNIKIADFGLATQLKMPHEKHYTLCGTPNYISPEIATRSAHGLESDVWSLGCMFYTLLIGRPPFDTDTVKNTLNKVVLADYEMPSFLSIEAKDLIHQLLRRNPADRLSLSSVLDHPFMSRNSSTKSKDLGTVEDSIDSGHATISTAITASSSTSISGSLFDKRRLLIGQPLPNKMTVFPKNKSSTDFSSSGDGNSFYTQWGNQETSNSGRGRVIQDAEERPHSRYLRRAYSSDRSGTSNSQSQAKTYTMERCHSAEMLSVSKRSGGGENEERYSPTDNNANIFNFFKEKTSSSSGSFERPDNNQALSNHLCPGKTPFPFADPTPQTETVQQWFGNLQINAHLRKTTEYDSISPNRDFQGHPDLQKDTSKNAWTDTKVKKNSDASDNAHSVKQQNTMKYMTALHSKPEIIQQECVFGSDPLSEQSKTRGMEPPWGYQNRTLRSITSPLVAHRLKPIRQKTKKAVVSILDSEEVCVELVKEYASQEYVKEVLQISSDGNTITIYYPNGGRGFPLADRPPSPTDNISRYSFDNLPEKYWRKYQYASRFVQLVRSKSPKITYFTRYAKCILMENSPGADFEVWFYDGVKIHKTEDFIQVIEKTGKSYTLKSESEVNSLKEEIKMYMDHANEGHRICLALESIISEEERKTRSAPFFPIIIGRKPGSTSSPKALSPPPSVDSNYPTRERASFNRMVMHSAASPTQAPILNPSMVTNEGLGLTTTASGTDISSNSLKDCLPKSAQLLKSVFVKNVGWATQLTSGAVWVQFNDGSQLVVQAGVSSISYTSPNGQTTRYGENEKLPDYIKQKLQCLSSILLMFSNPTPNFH
# Wee1(h) = target: T2, Wee1(h) (Homo sapiens, UniProt P30291)
# T2 construct: purchased Eurofins (KinaseProfiler)
# T2 sequence (P30291 whole entry): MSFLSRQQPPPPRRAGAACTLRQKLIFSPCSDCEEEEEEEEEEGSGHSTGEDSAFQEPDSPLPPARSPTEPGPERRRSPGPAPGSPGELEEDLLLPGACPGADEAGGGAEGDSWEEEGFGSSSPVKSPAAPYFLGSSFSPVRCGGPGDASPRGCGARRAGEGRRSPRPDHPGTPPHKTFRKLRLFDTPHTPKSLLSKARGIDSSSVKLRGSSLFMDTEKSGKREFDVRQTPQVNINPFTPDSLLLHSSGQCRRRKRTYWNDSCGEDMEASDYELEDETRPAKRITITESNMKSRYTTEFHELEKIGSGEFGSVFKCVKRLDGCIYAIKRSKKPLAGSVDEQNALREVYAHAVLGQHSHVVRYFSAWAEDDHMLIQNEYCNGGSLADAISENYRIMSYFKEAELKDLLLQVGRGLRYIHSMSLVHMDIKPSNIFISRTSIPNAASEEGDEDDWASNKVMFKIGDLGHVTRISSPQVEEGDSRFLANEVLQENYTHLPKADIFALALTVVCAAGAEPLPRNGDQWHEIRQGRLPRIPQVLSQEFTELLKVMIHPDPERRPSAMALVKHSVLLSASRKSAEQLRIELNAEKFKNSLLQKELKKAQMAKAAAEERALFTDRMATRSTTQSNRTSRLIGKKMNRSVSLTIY
# IRE1(h) = target: T3, IRE1(h) (Homo sapiens, UniProt O75460)
# T3 construct: purchased Eurofins (KinaseProfiler)
# T3 sequence (O75460 19-977): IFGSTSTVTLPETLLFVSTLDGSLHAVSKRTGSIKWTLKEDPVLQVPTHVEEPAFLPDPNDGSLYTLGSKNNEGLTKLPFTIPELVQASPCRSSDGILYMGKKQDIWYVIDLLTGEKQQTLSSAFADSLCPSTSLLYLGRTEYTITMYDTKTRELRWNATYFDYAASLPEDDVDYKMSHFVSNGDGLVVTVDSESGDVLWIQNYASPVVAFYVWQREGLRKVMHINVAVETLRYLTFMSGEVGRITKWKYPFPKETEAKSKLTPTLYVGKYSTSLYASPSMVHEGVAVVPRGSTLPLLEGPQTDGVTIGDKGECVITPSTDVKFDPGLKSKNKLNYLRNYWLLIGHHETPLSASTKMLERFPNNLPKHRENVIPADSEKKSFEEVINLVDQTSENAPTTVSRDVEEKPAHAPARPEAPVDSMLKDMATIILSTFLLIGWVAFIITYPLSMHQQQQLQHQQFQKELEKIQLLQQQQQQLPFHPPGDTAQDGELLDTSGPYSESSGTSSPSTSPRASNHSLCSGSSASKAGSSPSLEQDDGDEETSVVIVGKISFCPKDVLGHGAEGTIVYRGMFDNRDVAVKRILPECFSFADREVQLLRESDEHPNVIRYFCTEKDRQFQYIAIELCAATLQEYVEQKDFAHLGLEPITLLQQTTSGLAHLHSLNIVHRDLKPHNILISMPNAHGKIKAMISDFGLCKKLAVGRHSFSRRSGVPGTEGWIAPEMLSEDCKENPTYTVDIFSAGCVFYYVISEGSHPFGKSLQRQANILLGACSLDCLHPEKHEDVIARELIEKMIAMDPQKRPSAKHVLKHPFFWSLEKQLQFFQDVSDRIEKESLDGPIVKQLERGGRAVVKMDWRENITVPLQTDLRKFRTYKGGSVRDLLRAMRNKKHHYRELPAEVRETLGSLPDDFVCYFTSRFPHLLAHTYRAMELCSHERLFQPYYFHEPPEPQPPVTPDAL
# Pim-3(h) = target: T4, Pim-3(h) (Homo sapiens, UniProt Q86V86)
# T4 construct: purchased Eurofins (KinaseProfiler)
# DRAK2(h) = target: T5, DRAK2(h) (Homo sapiens, UniProt O94768)
# T5 construct: purchased Eurofins (KinaseProfiler)
# T5 sequence (O94768 1-372): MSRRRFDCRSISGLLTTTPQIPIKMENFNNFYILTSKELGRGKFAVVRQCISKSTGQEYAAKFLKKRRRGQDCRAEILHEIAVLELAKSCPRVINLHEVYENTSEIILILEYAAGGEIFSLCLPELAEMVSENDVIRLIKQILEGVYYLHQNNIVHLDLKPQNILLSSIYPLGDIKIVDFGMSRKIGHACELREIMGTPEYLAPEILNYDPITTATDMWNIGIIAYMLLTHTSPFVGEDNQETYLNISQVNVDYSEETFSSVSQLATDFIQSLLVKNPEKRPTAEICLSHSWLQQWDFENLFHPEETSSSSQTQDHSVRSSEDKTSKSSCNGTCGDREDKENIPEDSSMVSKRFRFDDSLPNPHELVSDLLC
# EphA4(h) = target: T6, EphA4(h) (Homo sapiens, UniProt P54764)
# T6 construct: purchased Eurofins (KinaseProfiler)
# T6 sequence (P54764 20-986): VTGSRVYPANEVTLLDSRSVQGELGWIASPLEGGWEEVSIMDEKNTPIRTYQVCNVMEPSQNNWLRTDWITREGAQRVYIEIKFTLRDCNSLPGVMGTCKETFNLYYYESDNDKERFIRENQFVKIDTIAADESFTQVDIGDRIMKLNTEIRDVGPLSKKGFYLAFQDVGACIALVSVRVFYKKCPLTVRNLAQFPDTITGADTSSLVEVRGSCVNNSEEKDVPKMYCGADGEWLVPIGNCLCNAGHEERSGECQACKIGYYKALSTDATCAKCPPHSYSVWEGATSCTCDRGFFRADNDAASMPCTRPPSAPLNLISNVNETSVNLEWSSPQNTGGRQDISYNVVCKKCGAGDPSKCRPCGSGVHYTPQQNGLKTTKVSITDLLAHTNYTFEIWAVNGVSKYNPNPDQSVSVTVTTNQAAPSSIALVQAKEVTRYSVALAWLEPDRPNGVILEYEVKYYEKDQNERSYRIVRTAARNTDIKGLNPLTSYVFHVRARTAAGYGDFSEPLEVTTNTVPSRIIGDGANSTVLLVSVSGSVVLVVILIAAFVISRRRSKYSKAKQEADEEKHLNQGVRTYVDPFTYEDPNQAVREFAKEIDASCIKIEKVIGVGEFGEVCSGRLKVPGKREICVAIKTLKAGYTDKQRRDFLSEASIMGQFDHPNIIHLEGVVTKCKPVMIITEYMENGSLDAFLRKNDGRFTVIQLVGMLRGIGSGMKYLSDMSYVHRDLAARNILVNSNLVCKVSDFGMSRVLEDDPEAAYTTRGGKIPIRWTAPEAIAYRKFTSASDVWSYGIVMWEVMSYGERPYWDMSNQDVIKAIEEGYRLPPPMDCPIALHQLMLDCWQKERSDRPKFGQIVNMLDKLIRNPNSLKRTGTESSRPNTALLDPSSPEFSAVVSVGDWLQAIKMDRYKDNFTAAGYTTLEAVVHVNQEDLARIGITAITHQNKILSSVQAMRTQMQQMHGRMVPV
# TSSK1(h) = target: T7, TSSK1(h) (Homo sapiens, UniProt Q9BXA7)
# T7 construct: purchased Eurofins (KinaseProfiler)
# T7 sequence (Q9BXA7 1-367): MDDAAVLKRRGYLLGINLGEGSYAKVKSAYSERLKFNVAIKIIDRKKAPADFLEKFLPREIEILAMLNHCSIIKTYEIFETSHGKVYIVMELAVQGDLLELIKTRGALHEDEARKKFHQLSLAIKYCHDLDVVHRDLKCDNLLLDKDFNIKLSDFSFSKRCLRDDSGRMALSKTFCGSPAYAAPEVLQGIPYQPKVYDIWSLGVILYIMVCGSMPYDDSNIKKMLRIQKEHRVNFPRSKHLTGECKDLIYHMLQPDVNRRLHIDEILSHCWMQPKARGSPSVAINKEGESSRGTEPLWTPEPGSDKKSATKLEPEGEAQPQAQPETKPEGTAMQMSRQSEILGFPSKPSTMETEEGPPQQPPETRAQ
# MEK2(h) = target: T8, MEK2(h) (Homo sapiens, UniProt P36507)
# T8 construct: purchased Eurofins (KinaseProfiler)
# T8 sequence (P36507 whole entry): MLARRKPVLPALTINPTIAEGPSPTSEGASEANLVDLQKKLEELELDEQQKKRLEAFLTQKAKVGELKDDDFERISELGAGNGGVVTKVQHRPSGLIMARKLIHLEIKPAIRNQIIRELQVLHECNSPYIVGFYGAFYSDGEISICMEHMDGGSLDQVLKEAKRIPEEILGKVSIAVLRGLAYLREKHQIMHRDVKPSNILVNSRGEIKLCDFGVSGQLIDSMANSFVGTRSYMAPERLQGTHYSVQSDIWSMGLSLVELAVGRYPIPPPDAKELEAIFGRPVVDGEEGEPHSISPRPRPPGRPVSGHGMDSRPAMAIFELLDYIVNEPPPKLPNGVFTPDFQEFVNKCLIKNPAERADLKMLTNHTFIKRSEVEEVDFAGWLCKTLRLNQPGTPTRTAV
# MARK1(h) = target: T9, MARK1(h) (Homo sapiens, UniProt Q9P0L2)
# T9 construct: purchased Eurofins (KinaseProfiler)
# T9 sequence (Q9P0L2 whole entry): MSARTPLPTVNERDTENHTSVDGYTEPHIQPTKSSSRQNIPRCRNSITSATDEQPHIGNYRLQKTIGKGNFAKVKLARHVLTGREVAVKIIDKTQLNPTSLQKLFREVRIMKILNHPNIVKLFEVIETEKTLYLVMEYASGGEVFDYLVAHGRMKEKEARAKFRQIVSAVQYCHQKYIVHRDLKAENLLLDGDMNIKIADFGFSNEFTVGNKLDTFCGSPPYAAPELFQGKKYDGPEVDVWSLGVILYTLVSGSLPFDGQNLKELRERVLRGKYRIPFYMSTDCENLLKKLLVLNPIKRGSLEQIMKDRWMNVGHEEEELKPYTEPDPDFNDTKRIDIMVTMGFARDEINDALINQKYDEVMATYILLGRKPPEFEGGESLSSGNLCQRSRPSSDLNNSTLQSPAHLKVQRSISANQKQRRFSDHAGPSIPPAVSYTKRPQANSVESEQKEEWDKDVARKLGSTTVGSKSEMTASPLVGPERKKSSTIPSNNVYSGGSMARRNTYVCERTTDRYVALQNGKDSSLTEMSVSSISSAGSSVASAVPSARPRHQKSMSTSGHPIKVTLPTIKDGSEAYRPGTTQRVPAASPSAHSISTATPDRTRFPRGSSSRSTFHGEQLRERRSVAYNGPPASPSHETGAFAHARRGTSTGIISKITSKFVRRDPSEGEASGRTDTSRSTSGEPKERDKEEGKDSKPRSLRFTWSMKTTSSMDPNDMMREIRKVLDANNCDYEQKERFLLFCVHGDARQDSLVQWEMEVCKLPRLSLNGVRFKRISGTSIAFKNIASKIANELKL
# IRAK1(h) = target: T10, IRAK1(h) (Homo sapiens, UniProt P51617)
# T10 construct: purchased Eurofins (KinaseProfiler)
# T10 sequence (P51617 whole entry): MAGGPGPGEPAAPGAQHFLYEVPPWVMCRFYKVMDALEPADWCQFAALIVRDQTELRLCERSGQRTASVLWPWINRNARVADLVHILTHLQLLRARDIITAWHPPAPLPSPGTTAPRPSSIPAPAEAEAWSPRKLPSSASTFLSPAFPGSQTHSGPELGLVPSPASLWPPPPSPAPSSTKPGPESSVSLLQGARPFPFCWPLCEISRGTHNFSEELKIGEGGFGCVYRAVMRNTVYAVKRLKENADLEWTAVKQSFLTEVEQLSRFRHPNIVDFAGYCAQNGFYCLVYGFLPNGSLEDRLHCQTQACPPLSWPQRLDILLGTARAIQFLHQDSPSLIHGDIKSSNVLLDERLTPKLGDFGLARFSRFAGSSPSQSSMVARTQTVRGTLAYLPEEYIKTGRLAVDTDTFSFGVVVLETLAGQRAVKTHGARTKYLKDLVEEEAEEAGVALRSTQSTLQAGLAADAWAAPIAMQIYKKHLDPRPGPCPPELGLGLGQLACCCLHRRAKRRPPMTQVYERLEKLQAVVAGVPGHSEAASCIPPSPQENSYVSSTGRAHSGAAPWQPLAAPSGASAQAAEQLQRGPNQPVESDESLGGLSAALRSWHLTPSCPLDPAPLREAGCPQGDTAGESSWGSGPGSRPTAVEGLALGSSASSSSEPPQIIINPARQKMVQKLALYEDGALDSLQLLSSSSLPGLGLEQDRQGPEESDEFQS
structure (smiles),measurement,setting,value
COc1cc(OC)c(Cl)c(-c2ccc3c(NC(=O)c4ccc(N5CCNC(C)(C)C5)cc4)n[nH]c3n2)c1Cl [3D185],inhibition at 0.01 µM,Plk4(h); 10 nM,-18%
same,inhibition at 0.1 µM,Plk4(h); 100 nM,-20%
same,inhibition at 1 µM,Plk4(h); 1000 nM,-17%
same,inhibition at 0.01 µM,Wee1(h); 10 nM,-5%
same,inhibition at 0.1 µM,Wee1(h); 100 nM,-16%
same,inhibition at 1 µM,Wee1(h); 1000 nM,6%
same,inhibition at 0.01 µM,IRE1(h); 10 nM,-1%
same,inhibition at 0.1 µM,IRE1(h); 100 nM,-13%
same,inhibition at 1 µM,IRE1(h); 1000 nM,6%
same,inhibition at 0.01 µM,Pim-3(h); 10 nM,-5%
same,inhibition at 0.1 µM,Pim-3(h); 100 nM,-11%
same,inhibition at 1 µM,Pim-3(h); 1000 nM,-1%
same,inhibition at 0.01 µM,DRAK2(h); 10 nM,-5%
same,inhibition at 0.1 µM,DRAK2(h); 100 nM,-13%
same,inhibition at 1 µM,DRAK2(h); 1000 nM,3%
same,inhibition at 0.01 µM,EphA4(h); 10 nM,14%
same,inhibition at 0.1 µM,EphA4(h); 100 nM,5%
same,inhibition at 1 µM,EphA4(h); 1000 nM,13%
same,inhibition at 0.01 µM,TSSK1(h); 10 nM,5%
same,inhibition at 0.1 µM,TSSK1(h); 100 nM,2%
same,inhibition at 1 µM,TSSK1(h); 1000 nM,13%
same,inhibition at 0.01 µM,MEK2(h); 10 nM,-18%
same,inhibition at 0.1 µM,MEK2(h); 100 nM,-19%
same,inhibition at 1 µM,MEK2(h); 1000 nM,8%
same,inhibition at 0.01 µM,MARK1(h); 10 nM,-11%
same,inhibition at 0.1 µM,MARK1(h); 100 nM,-13%
same,inhibition at 1 µM,MARK1(h); 1000 nM,-25%
same,inhibition at 0.01 µM,IRAK1(h); 10 nM,4%
same,inhibition at 0.1 µM,IRAK1(h); 100 nM,0%
same,inhibition at 1 µM,IRAK1(h); 1000 nM,19%
